Measured values taken from patent US6995157B2, “Substituted 4,5-dihydro-1,2,4-triazin-3-ones, 1,2,4-triazin-3-ones, and their use as fungicides and insecticides” (priority 2000, dated 2006).

Experiments:
[1] = test system: Pyricularia oryzae; type: in vivo; conditions: protectant, 300 g/ha, greenhouse, inoculated 1 day after spraying, rated six days after inoculation; 100 is total disease control, 0 is no disease control
[2] = test system: Sphaerotheca fuliginea; conditions: in vivo

Structure (SMILES) | RB percent control [1] [%] | CPM percent control [2] [%]
CCCCCN1N=C(c2ccccc2)C(OC)NC1=O (racemic) [Compound 9] | 85 | 0
COC1NC(=O)N(C)N=C1c1ccc(Cl)cc1 (racemic) [Compound 12] | 80 | 0
COC1NC(=O)N(C(C)(C)C)N=C1c1ccc(Cl)cc1 (racemic) [Compound 14] | 90 | 50
CCCCCCCCCCN1N=C(c2ccc(Cl)cc2)C(OC)NC1=O (racemic) [Compound 17] | 80 | 0
COC1NC(=O)N(c2ccccc2)N=C1c1ccc(Cl)cc1 (racemic) [Compound 18] | 85 | 80
COC1NC(=O)N(CC(F)(F)F)N=C1c1ccc(Cl)cc1 (racemic) [Compound 20] | 80 | 0
CCCCCN1N=C(c2ccc(Cl)cc2)C(OC)NC1=O (centres unmarked) [Compound 1, 2-pentyl-5-methoxy-6-(4-chlorophenyl)-4,5-dihydro-1,2,4-triazin-3-one] | 85 | 0
CCCCCn1nc(-c2ccc(Cl)cc2)cnc1=O [Compound 2, 2-pentyl-6-(4-chlorophenyl)-1,2,4-triazin-3-one] | 85 | 50
CCCCN1N=C(c2ccc(Cl)cc2)C(OC)NC1=O (centres unmarked) [Compound 3, 2-n-butyl-5-methoxy-6-(4-chlorophenyl)-4,5-dihydro-1,2,4-triazin-3-one] | 85 | 0
CCCCn1nc(-c2ccc(Cl)cc2)cnc1=O [Compound 4, 2-n-butyl-6-(4-chlorophenyl)-1,2,4-triazin-3-one] | 85 | 0
CCCCN1N=C(c2ccc(Cl)cc2)CN(S(C)(=O)=O)C1=O [Compound 5, 2-n-butyl-4-methanesulfonyl-6-(4-chlorophenyl)-4,5-dihydro-1,2,4-triazin-3-one] | 0 | 90
CCCCCn1nc(-c2ccc(OC)cc2)c(-c2ccc(OC)cc2)nc1=O [Compound 8, 2-n-pentyl-5,6-bis-(4-methoxyphenyl)-1,2,4-triazin-3-one] | 50 | 0
CCCCCn1nc(-c2ccccc2)cnc1=O [Compound 10] | 80 | 0
Cn1nc(-c2ccc(Cl)cc2)cnc1=O [Compound 11] | 80 | 0
CC(C)(C)n1nc(-c2ccc(Cl)cc2)cnc1=O [Compound 13] | 85 | 0
O=C1NCC(c2ccc(Cl)cc2)=NN1c1ccccc1 [Compound 15] | 75 | 0
CS(=O)(=O)N1CC(c2ccc(Cl)cc2)=NN(c2ccccc2)C1=O [Compound 16] | 50 | 0
O=C1NCC(c2ccc(Cl)cc2)=NN1CC(F)(F)F [Compound 19] | 75 | 0
CN1CC(c2ccc(Cl)cc2)=NN(C#N)C1=O [Compound 27] | 50 | 0
C#CCN1N=C(c2ccc(Cl)cc2)CN(CCC)C1=O [Compound 28] | 50 | 0
CN1CC(c2ccccc2Cl)=NN(Cc2ccc(Cl)cc2)C1=O [Compound 29] | 50 | 
CN1CC(c2ccc(Cl)cc2)=NN(Cc2ccc(Cl)cc2)C1=O [Compound 30] | 75 | 
CCC#CCn1nc(-c2ccc(Cl)cc2)cnc1=O [Compound 31] | 85 | 50
CCC#CCN1CC(c2ccc(Cl)cc2)=NN(C)C1=O [Compound 32] | 75 | 75
CN1N=C(c2ccc(Cl)cc2)CNC1=O [Compound 33] | 80 | 0
CCCCCn1nc(-c2ccc(OC)cc2)cnc1=O [Compound 34] | 85 | 0
